# Test results: ChEMBL document CHEMBL1833833, “Design and synthesis of long acting inhaled corticosteroids for the treatment of asthma” (Bioorg Med Chem Lett, 2011)
# Active and inactive are the calls of the source. No cut-off for these calls is given here.
# Assays:
# PBMC = assay: Inhibition of TNFalpha release in human PBMC by ELISA assay; format: functional, cell-based
# Blood = assay: Inhibition of TNFalpha release in LPS-stimulated human whole blood by ELISA assay; format: functional, tissue-based
# [1] = Metabolic stability of compound in human liver microsomes assessed as intrinsic clearance by equilibrium dialysis; format: ADME, Microsome
# [2] = Metabolic stability in human liver microsomes assessed as phase 2 glucuronidation in presence of UDPGA; format: ADME, Microsome; settings: read-out: Stability
# Rattus norvegicus [3] = assay: Clearance in rat at 0.5 mg/kg, iv; format: ADME, organism-based; parameters: dose 0.5 mg/kg, route intravenous; settings: in vivo
# Rattus norvegicus [4] = assay: Unbound clearance in rat at 0.5 mg/kg, iv; format: ADME, organism-based; parameters: dose 0.5 mg/kg, route intravenous; settings: in vivo
# [5] = target: T1, Androgen receptor (Homo sapiens) (UniProt P10275); assay: Agonist activity at human AR; format: functional
# T1 sequence (whole entry): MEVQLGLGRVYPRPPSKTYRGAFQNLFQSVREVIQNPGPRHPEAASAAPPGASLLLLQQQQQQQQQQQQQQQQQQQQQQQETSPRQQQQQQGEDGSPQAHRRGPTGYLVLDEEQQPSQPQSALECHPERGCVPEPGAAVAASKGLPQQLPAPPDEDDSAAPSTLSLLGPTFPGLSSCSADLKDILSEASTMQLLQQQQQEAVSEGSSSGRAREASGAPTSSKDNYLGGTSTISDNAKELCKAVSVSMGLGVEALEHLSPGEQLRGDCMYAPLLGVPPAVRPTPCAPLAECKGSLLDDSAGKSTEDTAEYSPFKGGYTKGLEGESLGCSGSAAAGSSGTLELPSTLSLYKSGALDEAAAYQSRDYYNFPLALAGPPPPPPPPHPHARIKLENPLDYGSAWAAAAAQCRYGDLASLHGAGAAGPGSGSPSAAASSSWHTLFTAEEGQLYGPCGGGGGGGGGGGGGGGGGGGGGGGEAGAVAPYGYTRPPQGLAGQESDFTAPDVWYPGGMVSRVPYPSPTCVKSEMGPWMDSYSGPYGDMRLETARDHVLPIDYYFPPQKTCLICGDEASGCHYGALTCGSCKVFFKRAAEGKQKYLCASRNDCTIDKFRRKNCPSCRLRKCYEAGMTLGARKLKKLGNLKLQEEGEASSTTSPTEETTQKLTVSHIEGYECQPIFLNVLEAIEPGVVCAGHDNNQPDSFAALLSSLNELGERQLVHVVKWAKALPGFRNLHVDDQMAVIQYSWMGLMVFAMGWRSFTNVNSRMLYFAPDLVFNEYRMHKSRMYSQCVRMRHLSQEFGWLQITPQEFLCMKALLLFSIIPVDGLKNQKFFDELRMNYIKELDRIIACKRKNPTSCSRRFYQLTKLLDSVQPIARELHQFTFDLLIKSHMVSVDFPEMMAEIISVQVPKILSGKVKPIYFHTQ
# [6] = Oral bioavailability in rat at 2 mg/kg; format: ADME, organism-based; settings: in vivo
# [7] = Half life in rat; format: ADME, organism-based; settings: in vivo
# [8] = Antiinflammatory activity in rat assessed as inhibition of LPS-induced lung neutrophilia at 10 ug, intratracheally administered 4 hr prior to LPS challenge measured after 1 hr; format: functional, Neutrophil
# [9] = Antiinflammatory activity in rat assessed as inhibition of LPS-induced lung neutrophilia at 10 ug, intratracheally administered 4 hr prior to LPS challenge measured after 4 hrs; format: functional, Neutrophil
# [10] = Antiinflammatory activity in rat assessed as inhibition of LPS-induced lung neutrophilia at 10 ug, intratracheally administered 4 hr prior to LPS challenge measured after 8 hrs; format: functional, Neutrophil
# [11] = Antiinflammatory activity in rat assessed as inhibition of LPS-induced lung neutrophilia at 10 ug, intratracheally administered 4 hr prior to LPS challenge measured after 24 hrs; format: functional, Neutrophil
# [12] = Solubility of compound in simulated lung fluid by dialysis bag method; format: physicochemical
# [13] = Antiinflammatory activity in intratracheally dosed rat assessed as effective dose for inhibition of LPS-induced lung neutrophilia; format: functional, Neutrophil
# [14] = target: T2, Estrogen receptor (Homo sapiens) (UniProt P03372); assay: Agonist activity at human ER; format: functional
# T2 sequence (whole entry): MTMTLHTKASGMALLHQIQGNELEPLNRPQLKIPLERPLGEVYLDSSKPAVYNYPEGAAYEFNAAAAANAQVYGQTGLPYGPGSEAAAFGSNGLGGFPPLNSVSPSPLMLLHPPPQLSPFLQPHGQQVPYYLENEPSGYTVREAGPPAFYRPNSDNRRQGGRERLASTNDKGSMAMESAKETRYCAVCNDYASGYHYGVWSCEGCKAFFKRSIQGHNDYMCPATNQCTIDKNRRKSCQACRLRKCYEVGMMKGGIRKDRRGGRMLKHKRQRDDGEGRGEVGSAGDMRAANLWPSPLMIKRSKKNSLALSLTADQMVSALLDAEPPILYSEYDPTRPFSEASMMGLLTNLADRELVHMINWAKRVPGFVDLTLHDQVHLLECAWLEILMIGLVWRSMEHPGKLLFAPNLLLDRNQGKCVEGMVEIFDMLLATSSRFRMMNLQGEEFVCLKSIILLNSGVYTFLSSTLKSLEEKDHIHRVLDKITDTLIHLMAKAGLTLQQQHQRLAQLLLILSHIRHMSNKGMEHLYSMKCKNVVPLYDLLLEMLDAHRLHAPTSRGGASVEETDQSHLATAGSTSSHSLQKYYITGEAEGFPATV
# [15] = target: T1, Androgen receptor (Homo sapiens); assay: Antagonist activity at human AR; format: functional
# [16] = target: T2, Estrogen receptor (Homo sapiens); assay: Antagonist activity at human ER; format: functional
# Liver microsomes = assay: Metabolic stability of compound in human liver microsomes assessed as unbound intrinsic clearance by equilibrium dialysis; format: ADME, Microsome
# Rattus norvegicus [17] = assay: Antiinflammatory activity in rat assessed as inhibition of LPS-induced lung neutrophilia 10 ug, intratracheally administered 1 hr prior to LPS challenge measured after 1 hr; format: functional
# Rattus norvegicus [18] = assay: Antiinflammatory activity in rat assessed as inhibition of LPS-induced lung neutrophilia 10 ug, intratracheally administered 1 hr prior to LPS challenge measured after 2 hrs; format: functional
# [19] = Antiinflammatory activity in rat assessed as inhibition of LPS-induced lung neutrophilia 10 ug, intratracheally administered 1 hr prior to LPS challenge measured after 4 hrs; format: functional, Neutrophil
# [20] = Antiinflammatory activity in rat assessed as inhibition of LPS-induced lung neutrophilia 10 ug, intratracheally administered 1 hr prior to LPS challenge measured after 8 hrs; format: functional, Neutrophil
# [21] = Antiinflammatory activity in rat assessed as effective dose for inhibition of LPS-induced lung neutrophilia administered intratracheally 4 hr prior to LPS challenge; format: functional, Neutrophil
# [22] = target: T3, Glucocorticoid receptor (Homo sapiens) (UniProt P04150)
# T3 sequence (whole entry): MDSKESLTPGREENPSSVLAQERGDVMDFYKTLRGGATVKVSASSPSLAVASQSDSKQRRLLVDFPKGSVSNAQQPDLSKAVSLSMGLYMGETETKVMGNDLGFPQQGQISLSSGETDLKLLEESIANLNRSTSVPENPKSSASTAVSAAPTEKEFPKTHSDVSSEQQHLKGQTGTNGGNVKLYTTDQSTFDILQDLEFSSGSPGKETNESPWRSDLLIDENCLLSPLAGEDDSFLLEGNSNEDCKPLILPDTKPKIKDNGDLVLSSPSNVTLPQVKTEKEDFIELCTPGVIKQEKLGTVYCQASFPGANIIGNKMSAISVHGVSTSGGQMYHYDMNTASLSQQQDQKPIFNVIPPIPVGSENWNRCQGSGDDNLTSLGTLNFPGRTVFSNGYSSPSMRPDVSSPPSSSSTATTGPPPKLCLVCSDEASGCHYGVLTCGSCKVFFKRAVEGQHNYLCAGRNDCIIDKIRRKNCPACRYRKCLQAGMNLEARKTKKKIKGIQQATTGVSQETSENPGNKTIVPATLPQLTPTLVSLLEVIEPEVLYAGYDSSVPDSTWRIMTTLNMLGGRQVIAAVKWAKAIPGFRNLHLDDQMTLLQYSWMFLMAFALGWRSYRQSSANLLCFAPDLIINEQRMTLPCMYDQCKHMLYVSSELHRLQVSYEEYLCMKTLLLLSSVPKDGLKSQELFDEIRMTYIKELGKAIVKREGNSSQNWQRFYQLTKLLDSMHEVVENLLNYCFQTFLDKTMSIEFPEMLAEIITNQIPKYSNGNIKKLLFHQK
# Description: Agonist activity at human GR assessed as dissociation half life
# Glucocorticoid receptor = target: T4, Glucocorticoid receptor (Homo sapiens, UniProt P04150)
# T4 sequence (P04150 whole entry): T3 sequence (whole entry)
# Description: Agonist activity at GR in human SW1353 cells transfected with luciferase gene linked to MMTV promoter assessed as luciferase transactivation activity
smiles,measurement,setting,value
CCCC1O[C@@H]2C[C@H]3[C@@H]4CCC5=CC(=O)C=C[C@]5(C)[C@H]4[C@@H](O)C[C@]3(C)[C@]2(C(=O)CO)O1 (stereo partly drawn) [BUDESONIDE],IC50,PBMC,0.96 nM
same,IC50,Blood,8.46 nM
C[C@@H]1C[C@H]2[C@@H]3C[C@H](F)C4=CC(=O)C=C[C@]4(C)[C@@]3(F)[C@@H](O)C[C@]2(C)[C@@]1(OC(=O)c1ccco1)C(=O)SCF [FLUTICASONE FUROATE],IC50,PBMC,0.05 nM
same,IC50,Blood,43 nM
C[C@]12C=CC(=O)C=C1[C@@H](F)C[C@H]1[C@@H]3C[C@H]4O[C@@H](c5ccc(CSc6ccc(O)c(Cl)c6)cc5)O[C@@]4(C(=O)CO)[C@@]3(C)C[C@H](O)[C@@]12F,IC50,PBMC,0.03 nM
same,IC50,Blood,8.73 nM
same,microsomal CLint,[1],122 µL/min/mg
same,microsomal CLint,[2],100 µL/min/mg
same,clearance,Rattus norvegicus [3],84 mL/min/kg
same,CL free,Rattus norvegicus [4],> 59000 mL/min/kg
same,Activity,[5],inactive
same,bioavailability,[6],< 1%
same,half-life,[7],2.8 h
same,inhibition (INH),[8],52%
same,inhibition (INH),[9],59%
same,inhibition (INH),[10],46%
same,inhibition (INH),[11],24%
same,solubility,[12],0.36 µg/mL
same,ED50,[13],36 µg
same,Activity,[14],inactive
same,Activity,[15],inactive
same,Activity,[16],inactive
CCC(=O)O[C@]1(C(=O)SCF)[C@H](C)C[C@H]2[C@@H]3C[C@H](F)C4=CC(=O)C=C[C@]4(C)[C@@]3(F)[C@@H](O)C[C@@]21C [FLUTICASONE PROPIONATE],IC50,PBMC,0.1 nM
same,IC50,Blood,9.3 nM
same,microsomal CLint,[1],51 µL/min/mg
same,CL free,Liver microsomes,300 µL/min/mg
same,microsomal CLint,[2],< 3.5 µL/min/mg
same,clearance,Rattus norvegicus [3],56 mL/min/kg
same,CL free,Rattus norvegicus [4],1800 mL/min/kg
same,bioavailability,[6],< 2%
same,half-life,[7],1.1 h
same,inhibition (INH),Rattus norvegicus [17],29%
same,inhibition (INH),Rattus norvegicus [18],11%
same,inhibition (INH),[19],8%
same,inhibition (INH),[20],10%
same,solubility,[12],0.32 µg/mL
same,ED50,[21],3 µg
same,T1/2,[22],9.07 h
C[C@]12C=CC(=O)C=C1[C@@H](F)C[C@H]1[C@@H]3C[C@H]4O[C@@H](c5ccc(Cc6ccccc6)cc5)O[C@@]4(C(=O)CO)[C@@]3(C)C[C@H](O)[C@@]12F,IC50,PBMC,0.17 nM
C[C@]12C=CC(=O)C=C1[C@@H](F)C[C@H]1[C@@H]3C[C@H]4O[C@@H](c5ccc(CSc6ccccc6)cc5)O[C@@]4(C(=O)CO)[C@@]3(C)C[C@H](O)[C@@]12F,IC50,PBMC,0.22 nM
C[C@]12C=CC(=O)C=C1[C@@H](F)C[C@H]1[C@@H]3C[C@H]4O[C@@H](c5ccc(Cc6ccc(O)cc6)cc5)O[C@@]4(C(=O)CO)[C@@]3(C)C[C@H](O)[C@@]12F,IC50,PBMC,0.04 nM
C[C@]12C=CC(=O)C=C1[C@@H](F)C[C@H]1[C@@H]3C[C@H]4O[C@@H](c5ccc(-c6ccccc6)cc5)O[C@@]4(C(=O)CO)[C@@]3(C)C[C@H](O)[C@@]12F,IC50,PBMC,0.41 nM
C[C@]12C=CC(=O)C=C1[C@@H](F)C[C@H]1[C@@H]3C[C@H]4O[C@@H](c5ccc(OC6=CCC(=O)N=N6)cc5)O[C@@]4(C(=O)CO)[C@@]3(C)C[C@H](O)[C@@]12F,IC50,PBMC,0.12 nM
same,EC50,Glucocorticoid receptor,21.1 nM
C[C@]12C=CC(=O)C=C1[C@@H](F)C[C@H]1[C@@H]3C[C@H]4O[C@@H](c5ccc(SCc6ccccc6)cc5)O[C@@]4(C(=O)CO)[C@@]3(C)C[C@H](O)[C@@]12F,IC50,PBMC,0.16 nM
C[C@]12C=CC(=O)C=C1[C@@H](F)C[C@H]1[C@@H]3C[C@H]4O[C@@H](c5ccc(CN6CCOCC6)cc5)O[C@@]4(C(=O)CO)[C@@]3(C)C[C@H](O)[C@@]12F,IC50,PBMC,1.81 nM
C[C@]12C=CC(=O)C=C1[C@@H](F)C[C@H]1[C@@H]3C[C@H]4O[C@@H](c5ccc(CSc6cccc(O)c6)cc5)O[C@@]4(C(=O)CO)[C@@]3(C)C[C@H](O)[C@@]12F,IC50,PBMC,0.15 nM
C[C@]12C=CC(=O)C=C1[C@@H](F)C[C@H]1[C@@H]3C[C@H]4O[C@@H](c5ccc(Oc6ccccc6)cc5)O[C@@]4(C(=O)CO)[C@@]3(C)C[C@H](O)[C@@]12F,IC50,PBMC,0.09 nM
C[C@]12C=CC(=O)C=C1[C@@H](F)C[C@H]1[C@@H]3C[C@H]4O[C@@H](c5ccc(CSc6ccc(O)cc6)cc5)O[C@@]4(C(=O)CO)[C@@]3(C)C[C@H](O)[C@@]12F,IC50,PBMC,0.06 nM
CSc1cccc(Sc2ccc([C@@H]3O[C@@H]4C[C@H]5[C@@H]6C[C@H](F)C7=CC(=O)C=C[C@]7(C)[C@@]6(F)[C@@H](O)C[C@]5(C)[C@]4(C(=O)CO)O3)cc2)c1,IC50,PBMC,0.1 nM
same,IC50,Blood,47.4 nM
same,microsomal CLint,[1],154 µL/min/mg
same,CL free,Liver microsomes,> 3080 µL/min/mg
same,microsomal CLint,[2],< 3.5 µL/min/mg
same,clearance,Rattus norvegicus [3],26 mL/min/kg
same,CL free,Rattus norvegicus [4],> 18000 mL/min/kg
same,bioavailability,[6],< 0.5%
same,half-life,[7],1.9 h
